Series [1] in a line: Apparent permeability across human Caco-2 cells. The class given is ADME, cell-based. In general terms: Caco-2 cells form a polarised layer with tight junctions and transporters.
Series [2] in a line: Apparent permeability across human Caco-2 cells in presence of BSA in basolateral chamber. The class given is ADME, cell-based.
The nature of series [3]: Toxicity against rat erythrocytes assessed as hemolysis upto 1000 uM in presence of BSA. The class given is cell-based. Conditions: erythrocyte.
Series [4] in a line: Toxicity against rat erythrocytes assessed as hemolysis upto 1000 uM. The class given is cell-based. Conditions: erythrocyte.
The nature of series [5]: Metabolic stability in presence of BSA. The class given is ADME.
For a further series, the system named is Caco-2. Kind of series: Metabolic stability in human Caco-2 cell homogenate. The class given is ADME, cell-based.
Series [6] is described as follows: Toxicity against rat erythrocytes assessed as decrease in hemolysis in presence of BSA. The class given is cell-based. Conditions: erythrocyte.
Series [7] can be described thus: Toxicity against rat erythrocytes assessed as induction of hemolysis at >= 1000 uM. The class given is cell-based. Conditions: erythrocyte.

Here are results for four molecules from ChEMBL document CHEMBL1157163, “In vitro permeability and metabolic stability of bile pigments and the effects of hydrophilic and lipophilic modification of biliverdin” (Bioorg Med Chem, 2008).

One may read the Papp as the rate of passage across a membrane or cell layer, normalised by area and donor concentration. As for `C=CC1=C(C)/C(=C/C2=NC(=C\c3[nH]c(/C=C4\NC(=O)C(C)=C4C=C)c(C)c3CCC(=O)O)/C(CCC(=O)O)=C2C)NC1=O` [BILIVERDIN], the apparent permeability coefficient (Papp) was 1.01 ×10⁻⁶ cm/s in series [1] and 3.7 ×10⁻⁶ cm/s in series [2]. Besides, the Activity result in series [3] and in series [4] was “Non-toxic” throughout. The Stability entry (in series [5]; in the series on Caco-2) was “Stable” in each case.

In the case of `C=CC1=C(C)/C(=C/C2=NC(=C\c3[nH]c(/C=C4\NC(=O)C(C)=C4C=C)c(C)c3CCC(=O)N[C@H]3C(O)O[C@H](CO)[C@@H](O)[C@@H]3O)/C(CCC(=O)N[C@@H]3C(O)O[C@@H](CO)[C@H](O)[C@H]3O)=C2C)NC1=O` (some centres undefined) [BILIVERDIN DIGLUCOSAMINE], the Stability result (in series [5]; in the series with Caco-2) was “Stable” throughout.

Regarding `C=CC1=C(C)/C(=C/c2[nH]c(Cc3[nH]c(/C=C4\NC(=O)C(C)=C4C=C)c(C)c3CCC(=O)NCCS(=O)(=O)O)c(CCC(=O)NCCS(=O)(=O)O)c2C)NC1=O` [BILIRUBIN DITAURATE], the results for the Papp in series [1] and in series [2] were 0.39 ×10⁻⁶ cm/s and 3.52 ×10⁻⁶ cm/s, respectively. For the same molecule, the Activity entry in series [3] and in series [4] was “Non-toxic” in each case. In addition, the Stability result (in series [5]; in the series on Caco-2) was “Stable” each time.

With `C=CC1=C(C)/C(=C/c2[nH]c(Cc3[nH]c(/C=C4\NC(=O)C(C)=C4C=C)c(C)c3CCC(=O)O)c(CCC(=O)O)c2C)NC1=O` [BILIRUBIN], the Papp in series [1] is 0.02 ×10⁻⁶ cm/s; in series [2] it was 1.04 ×10⁻⁶ cm/s. The Activity result in series [6] is on record as “Non-toxic”; in series [7], “Toxic”. Besides, the Stability in series [5] is reported as 0.33 %/min.
